Patent US8765447B2, “Fungal strain Beauveria sp. MTCC 5184 and a process for the preparation of enzymes therefrom” (Council of Scientific and Industrial Research, priority 2010, dated 2014)

Legend:
[1] = tested on: purified protease of Beauveria sp MTCC 5184; conditions: 3 M NaCl (FIG. 14), 28° C., 30 min
Experimental: Samples were removed at regular intervals and residual activity was measured at 50° C., pH 9.0 and expressed as percentage of activity without NaCl taken as 100%.

[2] = tested on: purified protease of Beauveria sp MTCC 5184; assay: Stability of purified protease in organic solvents at 50° C.; assay type: biochemical; conditions: 25% (v/v) solvent, pH 7
Text: Following organic solvents were used: acetone, 1-butanol, benzene, chloroform, dimethylsulphoxide, ethanol, hexane, isopropanol and methanol. […] Samples were removed at different time intervals and residual activity was estimated.

[3] = tested on: protease of Beauveria sp MTCC 5184; assay: Stability of protease at 37° C. in water miscible solvents; assay type: biochemical; conditions: water miscible solvents (FIG. 10)
Experimental: FIG. 10: Stability of protease at 37° C. in presence of water miscible solvents.

[4] = tested on: purified protease of Beauveria sp MTCC 5184; assay: Effect of urea on protease activity; assay type: biochemical; conditions: 6M urea, 28° C., 2 h
Experimental: This example illustrates the effect of urea on protease activity of Beauveria sp MTCC 5184. […] In presence of 6M urea, protease was stable up to 2 h and retained more than 85% of initial activity (FIG. 13).

[Cl-].[Na+] [NaCl]
stability [1]: 100%

CO [Methanol, methanol]
Residual Activity (%) ([2]; 0 h): 100.00%
Residual Activity (%) ([2]; 1 h): 93.49%
Residual Activity (%) ([2]; 2 h): 46.09%
initial activity retained [3]: > 80%

NC(N)=O [urea]
initial activity retained [4]: more than 85%
